Assays:
[1] = experiments with humans; cited from earlier work
[2] = test system: Tetrahydrocannabinol Antibody; test: ^125 I THC radioimmunoassay response curve, dextran-coated charcoal separation; type: binding, rabbit
[3] = test system: Tetrahydrocannabinol Antibody; test: ^125 I THC radioimmunoassay response curve, anion exchange resin separation; type: binding, rabbit; details: resin reagent
[4] = Urine THC levels as a function of time after smoking known dosages; details: THC 2.5 mg smoked
antiserum = test: Binding of iodinated antigen to THC antiserum; design: species or system rabbit
Procedure: A total of 50 μl of a solution of […] of (6aR-trans)-N-[2-(4-hydroxyphenyl)ethyl]-4-(6a,7,8,10a-Tetrahydro-6,6,9-trimethyl-3-pentyl-6H-dibenzo[b,d]pyran-1-oxy)butanamide in 1 ml of 100% alcohol was added to a vial containing 5 mCi of Na^125 I having a radioactive concentration of >100 mCi/ml. To this mixture was then added a total of 40 μl of chloramine T solution (5 mg/ml in 75% EtOH; 25% Borate buffer 0.1 M, pH 8.4). The reaction mixture was mixed for 180 seconds. After mixing, a total of 40 μl of a 1% solution of sodium meta bisulfite (75% EtOH, 25% Tris buffer 0.1 M, pH 7.0) was added to the reaction vial, and the vial contents were mixed for 30 seconds to stop the reaction.
The mixture was removed from the vial and placed on the surface of a Bio-Gel P-2 column (1.5×40 cm, 100-200 mesh) until completely absorbed on the column bed. Approximately 200 ml of 60% Tris -40% EtOH were added, and 100×1-2 ml fractions were collected. The eluate contained the above-captioned, labeled antigen.
After selection of the appropriate fractions (≥50% binding), the fractions were pooled and diluted 1:50 in 0.01 M phosphate buffered saline (PBS) containing 25% ethanol with 0.1% sodium azide and 0.002-0.007% butylated hydroxy toluene (BHT) as preservatives.
[…]. Multiple iodinations were performed on Δ^9 -tetrahydrocannabinol,and the radioisotopically-labeled reagent was used as the ^125 I-labeled antigen. The elution patterns varied considerably. In general, there were numerous small peaks in the elution patterns of most of the iodination products with the percent binding being lower than 50%. On occasion, there were two major peaks with insufficient binding (<50%) in either peak.
. Subsequent injections were made at four-week intervals with immunogen in Freund's incomplete adjuvant. Bleedings, obtained by venipuncture from immunized rabbits, were allowed to stand at 2°-8° C. temperature until the clot had formed. The serum was decanted and stored at from -20° to 5° C.

CCCCCc1cc(O)c2c(c1)OC(C)(C)[C@@H]1CCC(C)=C[C@@H]21 [THC, Δ-9-tetrahydrocannabinol]
excretion route of metabolites [1]: mainly via feces
extent of metabolism [1]: almost complete metabolism
DPM ([2]; 12.5 ng/ml THC): 13946 DPM
DPM ([2]; 25.0 ng/ml THC): 11964 DPM
DPM ([2]; 50.0 ng/ml THC): 11389 DPM
DPM ([2]; 100.0 ng/ml THC): 11342 DPM
DPM ([2]; 200.0 ng/ml THC): 10474 DPM
DPM ([3]; 12.5 ng/ml THC): 31096 DPM
DPM ([3]; 25 ng/ml THC): 29212 DPM
DPM ([3]; 50 ng/ml THC): 27945 DPM
DPM ([3]; 100 ng/ml THC): 26333 DPM
DPM ([3]; 200 ng/ml THC): 25651 DPM
Tetrahydrocannabinol Concentration in urine ([4]; subject 1 (smoked marijuana prior to study), sodium azide added, 0 h): 10.0 ng THC E/ml
Tetrahydrocannabinol Concentration in urine ([4]; subject 1 (smoked marijuana prior to study), sodium azide added, 0-4 h): 29.0 ng THC E/ml
Tetrahydrocannabinol Concentration in urine ([4]; subject 1 (smoked marijuana prior to study), sodium azide added, 4-8 h): 70.0 ng THC E/ml
Tetrahydrocannabinol Concentration in urine ([4]; subject 1 (smoked marijuana prior to study), sodium azide added, 12-24 h): 72.5 ng THC E/ml
Tetrahydrocannabinol Concentration in urine ([4]; subject 1 (smoked marijuana prior to study), sodium azide added, 24-48 h): 41.5 ng THC E/ml
Tetrahydrocannabinol Concentration in urine ([4]; subject 1 (smoked marijuana prior to study), sodium azide added, 48-72 h): 40.0 ng THC E/ml
Tetrahydrocannabinol Concentration in urine ([4]; subject 1 (smoked marijuana prior to study), 0 h): 28.0 ng THC E/ml
Tetrahydrocannabinol Concentration in urine ([4]; subject 1 (smoked marijuana prior to study), 0-4 h): 45.0 ng THC E/ml
Tetrahydrocannabinol Concentration in urine ([4]; subject 1 (smoked marijuana prior to study), 4-8 h): 37.5 ng THC E/ml
Tetrahydrocannabinol Concentration in urine ([4]; subject 1 (smoked marijuana prior to study), 12-24 h): 45.0 ng THC E/ml
Tetrahydrocannabinol Concentration in urine ([4]; subject 1 (smoked marijuana prior to study), 24-48 h): 20.0 ng THC E/ml
Tetrahydrocannabinol Concentration in urine ([4]; subject 1 (smoked marijuana prior to study), 48-72 h): 27.5 ng THC E/ml
Tetrahydrocannabinol Concentration in urine ([4]; subject 2, sodium azide added, 0 h): 5.0 ng THC E/ml
Tetrahydrocannabinol Concentration in urine ([4]; subject 2, sodium azide added, 0-4 h): 11.0 ng THC E/ml
Tetrahydrocannabinol Concentration in urine ([4]; subject 2, sodium azide added, 4-8 h): 13.5 ng THC E/ml
Tetrahydrocannabinol Concentration in urine ([4]; subject 2, sodium azide added, 8-12 h): 7.5 ng THC E/ml
Tetrahydrocannabinol Concentration in urine ([4]; subject 2, sodium azide added, 12-24 h): 17.5 ng THC E/ml
Tetrahydrocannabinol Concentration in urine ([4]; subject 2, sodium azide added, 24-48 h): 7.5 ng THC E/ml
Tetrahydrocannabinol Concentration in urine ([4]; subject 2, sodium azide added, 48-72 h): 5.0 ng THC E/ml
Tetrahydrocannabinol Concentration in urine ([4]; subject 2, 0 h): 5.0 ng THC E/ml
Tetrahydrocannabinol Concentration in urine ([4]; subject 2, 0-4 h): 4.0 ng THC E/ml
Tetrahydrocannabinol Concentration in urine ([4]; subject 2, 4-8 h): 26.0 ng THC E/ml
Tetrahydrocannabinol Concentration in urine ([4]; subject 2, 8-12 h): 10.0 ng THC E/ml
Tetrahydrocannabinol Concentration in urine ([4]; subject 2, 12-24 h): 7.5 ng THC E/ml
Tetrahydrocannabinol Concentration in urine ([4]; subject 2, 24-48 h): 22.5 ng THC E/ml
Tetrahydrocannabinol Concentration in urine ([4]; subject 2, 48-72 h): 12.5 ng THC E/ml

(6aR-trans)-N-[2-hydroxyphenyl)ethyl]-4-(6a,7,10,10a-Tetrahydro-6,6,9-trimethyl-3-pentyl-6H-dibenzo[b,d]pyran-1-oxy)butanamide [Δ^9 -Tetrahydrocannabinol Derivative]
binding properties retained (antiserum; antigen reagent, at least six weeks): > 50%
binding of iodinated product, major peak (antiserum; upon iodination, major peak, fractions #10 to #15): > 50%
binding of iodinated product, minor peak (antiserum; upon iodination, minor peak, fractions #30 to #35): no binding
